Results reported in ChEMBL document CHEMBL4402539, “Biological effects and activity optimization of small-molecule, drug-like synthetic anion transporters” (Eur J Med Chem, 2019).

Assays:
Format in all cases: functional, cell-based
HCT-116 = experiment: Cytotoxicity in human HCT116 cells assessed as reduction in cell viability after 18 hrs by MTT assay; details: HCT-116, 18 h
HeLa = experiment: Cytotoxicity in human HeLa cells assessed as reduction in cell viability after 18 hrs by MTT assay
CAPAN-1 = experiment: Cytotoxicity in human Capan1 cells assessed as reduction in cell viability after 18 hrs by MTT assay; details: CAPAN-1, 18 h
A549 = experiment: Cytotoxicity in human A549 cells assessed as reduction in cell viability after 18 hrs by MTT assay; details: A549, 18 h

Measured: IC50

CC1(C)c2ccc([nH]2)C2(C)CCCNC(=O)c3cccc(n3)C(=O)NCCCC(C)(c3ccc1[nH]3)c1ccc([nH]1)C(C)(C)c1ccc2[nH]1
10 to 15 µM: all assays above

CC1(C)c2ccc([nH]2)C2(C)CCCCNC(=O)c3cccc(n3)C(=O)NCCCCC(C)(c3ccc1[nH]3)c1ccc([nH]1)C(C)(C)c1ccc2[nH]1
10 to 15 µM: all assays above
